Assay results from patent publication US20250368609A1, “TRIAZINANE COMPOUND AND COMPOSITION CONTAINING SAME” (SUMITOMO CHEMICAL COMPANY, LIMITED, priority 2022, published 2025).

Assays:
[1] = test system: waterhemp (Amaranthus tuberculatus=A. rudis); assay: Test method 3: upland field, post-emergence foliar application test, herbicidal efficacy against waterhemp; format: in vivo; conditions: scale 0 to 10
velvetleaf = assay: Test method 3: upland field, post-emergence foliar application test, herbicidal efficacy against velvetleaf; format: in vivo, Abutilon theophrasti; parameters: key: if there is no or almost no difference in the state of emergence or growth of test weeds at the time of investigation as compared with that of test weeds in an untreated control, the evaluation of the herbicidal efficacy is classified as “0”; if the test weeds are completely withered or emergence or growth of the test weeds is suppressed, the evaluation of the herbicidal efficacy is classified as “10”; conditions: scale 0 to 10
[2] = test system: velvetleaf (Abutilon theophrasti); assay: Test method 1: upland field, post-emergence foliar application test (velvetleaf); format: in vivo; parameters: key: if there is no or almost no difference in the state of emergence or growth of test weeds at the time of investigation as compared with that of test weeds in an untreated control, the evaluation of the herbicidal efficacy is classified as “0”; if the test weeds are completely withered or emergence or growth of the test weeds is suppressed, the evaluation of the herbicidal efficacy is classified as “10”; conditions: scale 0 to 10
Source text: Next, the herbicidal efficacy of the compound of the present invention is shown by test examples. In the following test examples, the evaluation of the herbicidal efficacy is classified into 0 to 10, where if there is no or almost no difference in the state of emergence or growth of test weeds at the time of investigation as compared with that of test weeds in an untreated control, the evaluation of the herbicidal efficacy is classified as “0”, and if the test weeds are completely withered or emergence or growth of the test weeds is suppressed, the evaluation of the herbicidal efficacy is classified as “10”. A pot is filled with a commercially available culture soil, and seeds of velvetleaf (Abutilon theophrasti) are sown in the pot. Thereafter, the seeds are covered with approximately 0.5 cm of soil, and each of the seeds is cultivated in a greenhouse for 13 days. Next, a predetermined amount of the test compound is dissolved in 1 mL of a DMF solution containing 2% of an adjuvant, and 18 mL of water is added thereto, thereby preparing a diluent. The diluent is uniformly sprayed over plants so as to give the plants a predetermined treatment amount. Thereafter, the plants are cultivated in the greenhouse for 20 days, and herbicidal efficacy is evaluated.

corn (Zea mays) = conditions: in vivo, 7 days

Row | SMILES | Herbicidal efficacy Waterhemp 1 WAT ([1]; dosage 16 gAI/ha) | Herbicidal efficacy Waterhemp 1 WAT ([1]; dosage 32 gAI/ha) | Herbicidal efficacy Velvetleaf 1 WAT (velvetleaf; dosage 16 gAI/ha) | Herbicidal efficacy Velvetleaf 1 WAT (velvetleaf; dosage 32 gAI/ha) | Herbicidal efficacy Waterhemp 1 WAT ([1]; dosage 8 gAI/ha) | Herbicidal efficacy Velvetleaf 1 WAT (velvetleaf; dosage 8 gAI/ha) | Herbicidal efficacy Velvetleaf 3 WAT ([2]; dosage 1 gAI/ha) | Herbicidal efficacy Velvetleaf 3 WAT ([2]; dosage 2 gAI/ha) | Phytotoxicity Corn 1 WAT (corn (Zea mays))
1 | C=CCOC(=O)C1(Oc2cc(-n3c(=O)cc(C(F)(F)F)n(C)c3=O)c(F)cc2Cl)CC1 [Compound B-1] | 9 | 9 | 10 | 10 | – | – | – | – | –
2 | CCOC(=O)COC(=O)C1(Oc2cc(-n3c(=O)cc(C(F)(F)F)n(C)c3=O)c(F)cc2Cl)CC1 [Compound B-2] | 9 | – | 10 | – | 9 | 10 | – | – | –
3 | Cn1c(=S)n(C)c(=O)n(-c2cc(OC3CCCC3)c(Cl)cc2F)c1=O [Compound C-1] | – | – | – | – | – | – | 1 | 1 | –
4 | C=CCOC(=O)C(C)Oc1cc(-n2c(=O)n(C)c(=S)n(C)c2=O)c(F)cc1Cl (stereo not shown) [Compound C-2] | – | – | – | – | – | – | 1 | 1 | –
5 | CCOCCOC(=O)C(C)Oc1cc(-n2c(=O)n(C)c(=S)n(C)c2=O)c(F)cc1Cl (stereo not shown) [Compound C-3] | – | – | – | – | – | – | 1 | 1 | –
6 | C=CCOC(=O)C1(Oc2cc(-n3c(=O)n(C)c(=S)n(C)c3=O)c(F)cc2Cl)CC1 [Compound I-5] | 9 | 9 | 10 | 10 | – | – | 10 | 10 | 1
7 | CCOC(=O)COC(=O)C1(Oc2cc(-n3c(=O)n(C)c(=S)n(C)c3=O)c(F)cc2Cl)CC1 [Compound I-14] | 9 | – | 10 | – | 9 | 10 | 10 | 10 | 1
